# In patent US10618937B2, “Method of treating Alzheimer's disease” (INDUSTRY-ACADEMIC COOPERATION FOUNDATION GYEONGSANG …, priority 2016, dated 2020):
# Tests used:
# [1] = system: APP-transfected SH-SY5Y cells; assay: MTT assay, cell viability of APP-transfected SH-SY5Y cells; type: cell-based, human; settings: 0.5, 1, 5, 10 and 20 μM, 4 hours, compared to the untreated APP group
# Procedure: The human APPswe/ind gene under the transcriptional control of the SV40 promoter/enhancer linked to the pCAX mammalian expression vector was obtained from addgene; The gene was deposited in the APP reservoir by Dennis Solkoe (plasmid 30145). The plasmid was amplified by DH5alpha strain in LB medium containing 50 μg/ml of ampicillin. The plasmid was purified by using a Qiagen plasmid mini kit (Cat #12143) and digested with EcoRV restriction enzyme and confirmed. The human neuroblastoma cell line SHYSY5Y used in the present in vitro experiments was cultured in DMEM medium containing 10% fetal bovine serum and 1% penicillin-streptomycin antibiotic (stock solutions concentrations of 10,000 U and 10,000 μg/ml, respectively)).
# (§1) SH-SY5Y cells and HT-22 cells were inoculated into a culture flask containing the medium, and cultured until reaching the confluency of 70% to 75%. The pCAX vector with the APPswe/ind gene was transfected for 48 hours by using Lipofectamine 3000 (Life technologies) according to the manufacturers instructions.
# APPswe/ind transfected SH-SY5Y cells were treated with novel peptide for 4 hours, followed by 3-[4, 5-dimethylthiazol-2-yl]-2,5-diphenyl tetrazolium bromide (MTT) analysis and Western blot analysis.
# MTT assay was performed to measure the survival rate of cells treated with various concentrations of adiponectin receptor-activating novel peptide (5AA1). The cells were inoculated at 1×10^5 cells/well in a 96-well plate containing 200 μl of Dulbecco's modified Eagle's medium (DMEM). After 70% of cell confluence, SH-SY5Y cells were treated with 0.5 μM, 1 μM, 5 μM, 10 μM, and 20 μM of adiponectin receptor-activating novel peptide, and then cultured for 4 hours. At the end of the treatment, MTT (5 mg/ml in PBS) was added to each well, and the plate was cultured at a temperature of 37° C. for 4 hours. The formazan dissolved in dimethyl sulfoxide (DMSO) was added to the well and the plate was stirred in the agitator for 10 to 20 minutes. Then, the absorbance was measured at a wavelength of 550 nm to 570 nm (L1) and 620 nm to 650 nm (L2) by using a scanning microplate reader.
# The L2 absorbance was measured for cell residuals and well imperfections, and the corrected absorbance (Abs.=L1−L2) of each well was calculated from 100× the absorbance of treated well/absorbance of the control well, and was used to measure the cell viability.
# [2] = system: APP-transfected HT-22 cells; assay: Western blot analysis of proteins isolated from APP-transfected HT-22 cells; type: cell-based; settings: 1, 5, 10 or 20 μM
# Procedure: as §1
# Protein concentrations were measured by using a BIORAD protein assay kit (BIORAD LABORATORIES, CA, USA). Equal amounts of protein (15 to 25 μg) were electrophoresed under the same experimental conditions using 4 to 12% BLOT™ minigel and MES SDS electrophoresis buffer (running buffer) 1×(NOVEX, LIFE TECHNOLOGIES, Kiryat Shmona, Israel), and a broad range prestained protein marker (GANGNAM STAIN™, Intron Biotechnology) was used as the control for the molecular size. To reduce nonspecific binding, the membranes used were blocked with 5% (w/v) skim milk and reacted with a primary antibody (a 1:1000 dilution) overnight at 4° C. After an appropriate reaction with a horseradish peroxidase (HRP)-binding secondary antibody, proteins were detected by using an ECL detection reagent (AMERSHAM PHARMECIA BIOTECH, Uppsala, Sweden) according to the manufacturer's instructions. The X-ray film was scanned and the optical density of the band was analyzed using a densitometry using a computer-based Sigma Gel program, version 1.0 (SPSS, Chicago, Ill., USA).
# For use as the primary antibody, anti-amyloid β (Aβ), anti-APP, anti-AdipoR1 (Adiponectin receptor 1), anti-phospho-AMPK, anti-SNAP-25 (Synaptosomal-Associated Protein 25), anti-SAP-102, anti-Syanpatophysin, phospho-Tau (Ser 413), anti-p-mTOR, anti-p-ULK1, and anti-β-actin were used.
# [3] = system: APP/PS1 model group; assay: In vivo electrophysiology and LTP analysis (hippocampus slice); parameters: species or system mice; settings: hippocampus slice CA1, after pairing stimuli, treated APP/PS1 model group
# Procedure: A hippocampus slice was prepared from adult mice to examine the CA1 circuit from the cross-sectional schaffer collateral (SC) input in the hippocampus slice ([…] thickness). Briefly, after anesthetizing the mice with isoflurane, the brains were quickly cooled by transcardiac perfusion with ice-cold cross-cerebrospinal fluid (CSF). After the brain was removed, the brains were stored in ice-cold sucrose-artificial CSF. A coronal section was cultured in artificial CSF at a temperature of 35° C. for 30 minutes, and cultured in artificial CSF at room temperature (23° C. to 25° C.) for 1 to 4 hours before being transferred to the recording chamber. […]
# LTP experiments were performed at 27° C. to 29° C. […] Stimulation was applied to the shaper-side branch (SC) pathway using a concentrated bipolar electrode located at […] from the soma of the recorded cells. […] In the LTP experiment, baseline EPSCs were measured for 3 min before applying the pairing stimuli (2 Hz, 2-minute stimulation, and post-synaptic depolarization to 0 mV). […]
substance,measurement,setting,value
RGPCG (adiponectin receptor-activating peptide) [5AA1],cell viability,[1],concentration-dependently increased
same,expression of AdipoR1 protein,[2],expressed more
same,expression of p-AMPK protein,[2],expressed more
same,expression level of amyloid β (Aβ),[2]; normalized with β-actin,significantly reduced
same,expression level of β-amyloid precursor protein (APP),[2]; normalized with β-actin,significantly reduced
same,level of EPSC enhancement (LTP),[3],almost the same as that of the normal group
